Laboratory results from US7268126B2, “Polymorphic and amorphous forms of the phosphate salt of 8-fluoro-2-{4-[(methylamino)methyl]phenyl}-1,3,4,5-tetrahydro-6H-azepino[5,4,3-ce]indol-6-one” (Agouron Pharmaceuticals, Inc., priority 2004, dated 2007).
Like-named read-outs stand apart in the source and are kept apart here.

What was measured:
[1] = physical and chemical storage stability of polymorphic forms; details: for physically stable, duration: ambient condition
[2] = pH 5.4
[3] = 40° C. under 75% relative humidity

Row | SMILES | aqueous solubility [2] | conversion to Form III (Hydrate B) [1, 3] | physically stable, duration [1] | other results
1 | CNCc1ccc(-c2[nH]c3cc(F)cc4c3c2CCNC4=O)cc1.O=P(O)(O)O [Form V, phosphate salt of 8-fluoro-2-{4-[(methylamino)methyl]phenyl}-1,3,4,5-tetrahydro-6H-azepino[5,4,3-cd]indol-6-one] |  |  |  | physically and chemically stable, duration ([1]; room temperature): at least 3 months
2 | CNCc1ccc(-c2[nH]c3cc(F)cc4c3c2CCNC4=O)cc1.O=P(O)(O)O [Form I, phosphate salt of 8-fluoro-2-{4-[(methylamino)methyl]phenyl}-1,3,4,5-tetrahydro-6H-azepino[5,4,3-cd]indol-6-one] | 2800 µg/mL | after one week | at least 3 months | 
3 | CNCc1ccc(-c2[nH]c3cc(F)cc4c3c2CCNC4=O)cc1.O=P(O)(O)O [Form III, phosphate salt of 8-fluoro-2-{4-[(methylamino)methyl]phenyl}-1,3,4,5-tetrahydro-6H-azepino[5,4,3-cd]indol-6-one] | 2700 µg/mL |  |  | 
4 | CNCc1ccc(-c2[nH]c3cc(F)cc4c3c2CCNC4=O)cc1.O=P(O)(O)O [Form II, phosphate salt of 8-fluoro-2-{4-[(methylamino)methyl]phenyl}-1,3,4,5-tetrahydro-6H-azepino[5,4,3-cd]indol-6-one] | 3000 µg/mL | after 1 week | at least 3 months | Solubility (pH 3): 460 µg/mL; Solubility (pH 4): 390 µg/mL; Solubility (pH 5): 370 µg/mL; Solubility (pH 6): 320 µg/mL; Solubility (pH 7): 250 µg/mL; Solubility (pH 8): 190 µg/mL; conversion to Form III (Hydrate B) ([1]; 25° C. under 90% relative humidity): overnight
5 | CNCc1ccc(-c2[nH]c3cc(F)cc4c3c2CCNC4=O)cc1.O=P(O)(O)O [Form IV, phosphate salt of 8-fluoro-2-{4-[(methylamino)methyl]phenyl}-1,3,4,5-tetrahydro-6H-azepino[5,4,3-cd]indol-6-one] | 4500 µg/mL |  |  | 
